Test results reported in a melting point compilation (Tetko et al.; mined from patent text by program, amines drawn as free bases though some values may be those of a salt).
Residues, ends and D or L forms follow the SMILES beside them. *: point of attachment. OiPr = CC(C)O*

First: CC1CCCN(c2ccc(Cl)cc2C(C)C(C(N)=O)c2ccc(C(=O)O)cc2)C1 (configuration not stated)
Second: COc1cc(OC2CCN(Cc3cccnc3)CC2)ccc1CC(=O)N1CCN(c2ccccc2C)CC1C(N)=O (configuration not stated)
The melting point of the first is higher: 208 to 210 °C for the first, 78 to 81 °C for the second.

First: Cc1cc(C)c2ncc(C#N)c(-c3ccccc3Cl)c2c1
Second: O=C1CC(c2ccccc2Cl)=Nc2c1cccc2C(=O)OCCO
The melting point of the first is lower: 153 to 154 °C for the first, 170 to 171 °C for the second.

First: O=C(O)COc1ccc2c(-c3cc([N+](=O)[O-])ccc3F)noc2c1Cl
Second: O=C(O)COc1ccc(C(O)c2cccs2)c(Cl)c1Cl (configuration not stated)
The melting point of the first is higher: 238 to 240 °C for the first, 163 °C for the second.

First: CCCCCCCCCCOc1cnc(-c2ccc(CCCCCC(C)OC(C)=O)cc2)nc1 (configuration not stated)
Second: CCCCc1nc2c(N)nc3ccccc3c2n1CCCCCC(=O)c1ccccc1
The melting point of the first is lower: 72 to 73 °C for the first, 149 to 151 °C for the second.

First: CC(C#N)=C1CCC2C3CCC4=CC(=O)CCC4(C)C3CCC12C (configuration not stated)
Second: CC(=O)C1C(Cl)CC2C3CCC4CC(O)C(Cl)CC4(C)C3C(=O)CC21C (configuration not stated)
The melting point of the first is higher: 195 to 196 °C for the first, 192 to 194 °C for the second.

Compared with `CC(C)OC(=O)C(CO)NC(=O)C(CC(=O)O)NC(=O)C(C)N` (stereo not drawn) (H-Ala-Asp-Ser-OiPr; configuration not given here), `COc1ccc(C(=O)CC(SC(C)=O)C(=O)O)cc1OC` (configuration not stated) is lower in melting point: 222 to 234 °C for the first, 110 to 112 °C for the second.

Compared with `CN(Cc1ccc(F)cc1)C1CCN(c2ccc([N+](=O)[O-])cc2)CC1`, `COC(=O)C1=C(C)NC(=O)N(C(=O)Oc2ccc([N+](=O)[O-])cc2)C1c1ccc(F)c(F)c1` (configuration not stated) is higher in melting point: 89 to 90 °C for the first, 185 to 186 °C for the second.

First: CCOC(=O)C(C)(C)NC(=O)c1ccc(S(=O)(=O)N2C(=O)C(NC)(c3ccccc3Cl)c3cc(Cl)ccc32)c(OC)c1 (configuration not stated)
Second: COc1ccc(C(=O)Nc2ccccc2)cc1NCc1ccc(C(C)(C)C)cc1
The melting point of the first is lower: 141 °C for the first, 195 to 197 °C for the second.

Compared with `COc1ccc2ncc3c(c2c1)[C@@H](O)C(OC)(OC)C[C@@H]3C`, `COCCOc1ccc(/C=C(\C)C(=O)O)c(Oc2ncc(Cl)cc2Cl)c1` is lower in melting point: 135 to 136 °C for the first, 126 to 127 °C for the second.

First: CCOC(=O)c1ncn2c1c(=O)n(C)c1ncccc12
Second: CCn1c(=O)c2cccnc2n(-c2cccc([N+](=O)[O-])c2)c1=O
The melting point of the first is higher: 233 to 234 °C for the first, 210 to 211 °C for the second.

First: Cc1cc(O)ccc1-c1ccc(C=O)c(Cl)c1
Second: Oc1ccc2c(c1)COc1c-2cc2ccc(O)cc2c1-c1ccc(F)c(F)c1
The melting point of the first is lower: 125 to 127 °C for the first, 235 to 237 °C for the second.

First: CC(C)(C)c1ccc(CCC(CC2CCCCC2)OC(=O)Oc2ccc(C(=O)O)cc2)cc1NC(=O)CC1c2ccccc2Oc2ccccc21 (configuration not stated)
Second: COc1ccccc1CC(O)(c1ccccc1)C1CCN(CCCC(=O)c2ccc(C(C)(C)C)cc2)CC1 (configuration not stated)
The melting point of the first is higher: 139 to 141 °C for the first, 118 to 120 °C for the second.

First: Cc1ccc(Oc2ccccc2C(=N)NO)c(O)c1
Second: CC(=O)c1ccc(NS(C)(=O)=O)c(Oc2ccccc2F)c1
The melting point of the first is lower: 85 to 87 °C for the first, 92 to 94 °C for the second.

Compared with `CCOc1cc([C@@H]2CC=CC[C@H]2[N+](=O)[O-])ccc1OC` (racemic), `COc1ccc(C2CCCCC2=O)cc1` (configuration not stated) is higher in melting point: 66 to 67 °C for the first, 90 °C for the second.

First: O=C(NCc1ccc(Cl)cc1)c1cnc2c(I)cc(CN3CCOCC3)cc2c1O
Second: Clc1ccc2nc(CN3CCN(c4ncccn4)CC3)cn2c1
The melting point of the first is higher: 230 to 233 °C for the first, 114 to 115 °C for the second.

First: Cc1cc(Cn2nc(C(F)(F)F)cc2C(F)(F)F)ccc1NC(=O)c1cccc(I)c1C(=O)NC(C)(C)CS(C)(=O)=O
Second: CCOC(=O)Cc1nn(Cc2ccc(Cl)c(Cl)c2)c(=O)c2c(C)cccc12
The melting point of the first is lower: 104 to 107 °C for the first, 134 to 137 °C for the second.

Compared with `CN(C)c1ccc(-c2cc(N(C(=O)OC(C)(C)C)C(=O)OC(C)(C)C)nn2C(=O)OC(C)(C)C)cc1`, `CC(=O)Oc1c(C)cc(N(C)C(=O)OC(C)(C)C)c(C)c1C` is higher in melting point: 64 to 65 °C for the first, 103 to 104 °C for the second.

First: O=C(O)c1ccc(NCc2cccc([N+](=O)[O-])c2)cc1O
Second: NCC(=O)NCC(=O)Nc1ccc([N+](=O)[O-])cc1C(=O)c1ccccc1
The melting point of the first is higher: 189 °C for the first, 121 to 123 °C for the second.

First: O=C=Nc1c(Cl)c(Cl)c(Cl)c(Cl)c1Cl
Second: OC(CCl)(Cc1c(Cl)cccc1Cl)c1ccc(Cl)cc1Cl (configuration not stated)
The melting point of the first is lower: 100 to 102 °C for the first, 117 °C for the second.

Compared with `CCOCc1nnc2n1-c1ccc(Cl)cc1C(c1ccccc1)=NC2`, `CC1COc2c(-c3ccccc3)ccc3c(=O)c(C(=O)O)cn1c23` (configuration not stated) is higher in melting point: 168 to 170 °C for the first, 295 to 296 °C for the second.

Compared with `O=c1[nH]c2ccccc2n1CCCN1CCC(O)(c2ccc(Cl)c(C(F)(F)F)c2)CC1`, `CN1CCN(c2cccc3ccc(OS(=O)(=O)C(F)(F)F)cc23)CC1` is lower in melting point: 189 °C for the first, 70 to 71 °C for the second.

Compared with `Cn1nccc1NC(=O)N1CCN(c2nc(-c3ccccc3F)cs2)CC1`, `COc1cc(C)c(C(C)O)cc1NC(=O)N1CCN(c2cc(C)cc(C)c2)CC1` (configuration not stated) is lower in melting point: 156 to 157 °C for the first, 140 to 142 °C for the second.

Compared with `CCc1[nH]n(C2CCCC2)c2nc(-c3cccc(OCC(=O)O)c3)nc(=O)c1-2`, `O=C1c2c(Cl)cccc2-n2cnc(-c3cnco3)c2[C@@H]2CCCN12` is lower in melting point: 299 to 300 °C for the first, 201 to 202 °C for the second.

First: COc1nc(NC(=O)NS(=O)(=O)c2ccccc2OC(Cl)=CCl)nc(OC)n1
Second: COc1ccccc1C=CC(=O)CC(=O)C=Cc1ccccc1OC
The melting point of the first is higher: 199 to 200 °C for the first, 121 to 123 °C for the second.

First: CC(C)(C#N)c1cc(CO)cc(C(C)(C)C#N)c1
Second: CN1CCN(c2cc3nc(C(C)(C)C)sc3cc2[N+](=O)[O-])CC1
The melting point of the first is higher: 151 to 153 °C for the first, 132 to 135 °C for the second.

First: Cc1c(C)c2c(c(C)c1N)C(c1ccccc1)C(C)(C)O2 (configuration not stated)
Second: CC1(C)OC(=O)C(OC2CCc3ccccc32)=C1c1ccc(S(C)(=O)=O)cc1 (configuration not stated)
The melting point of the first is higher: 131 to 132 °C for the first, 128 to 129 °C for the second.

First: O=C(O)C1=Cc2ccc(Cl)c(Cl)c2OC1C(F)(F)F (configuration not stated)
Second: Cc1cc(C=NO)ccc1C(=O)NCc1ccccn1
The melting point of the first is higher: 220 to 221 °C for the first, 160 to 161 °C for the second.

First: O=C(O)CSC(c1ccccc1)(c1ccccc1)c1ccccc1
Second: CC(=O)n1cc(-c2ccccc2)nc1-c1ccccc1C
The melting point of the first is higher: 158 to 160 °C for the first, 102 to 104 °C for the second.

First: Cc1cc2c(cc1Br)nc1n2CCC1
Second: CCOCc1nc2c(N)nc3ccccc3c2n1N1CCOCC1
The melting point of the first is lower: 167 to 170 °C for the first, 223 to 224 °C for the second.

First: COC(=O)N(C)c1ccc(OCc2nc3ccccc3s2)cc1
Second: CC(Nc1ccc(Oc2ccccc2)cc1)C(=O)O (configuration not stated)
The melting point of the first is lower: 85 to 87 °C for the first, 160 °C for the second.

Compared with `CS(=O)(=O)Nc1ccc(CCOS(C)(=O)=O)cc1`, `COC(=O)[C@H](Cc1ccc(NC(=O)c2c(Cl)cccc2Cl)cc1)NC(=O)OC(C)(C)C` is higher in melting point: 134 to 136 °C for the first, 148 to 151 °C for the second.

First: CSc1cc(C)nc(SC)c1NC(=O)CCCSc1nc2ccccc2s1
Second: CCCc1nn(C)c2c(=O)[nH]c(Cc3ccc(O)cc3)nc12
The melting point of the first is lower: 131 to 133 °C for the first, 260 °C for the second.

First: COC(=O)CCCC(=O)N(CCc1c[nH]c2ccccc12)Cc1ccccc1
Second: COc1ccc(COC(=O)NCCc2c[nH]c3ccc(F)cc23)cc1
The melting point of the first is lower: 107 to 108 °C for the first, 118 to 119 °C for the second.

First: COc1ccc(C(=O)O)c(OC(C)C)c1Br
Second: C=C(C(=O)c1cc2c(c(C)c1C)OC(C(=O)O)C2)C(C)C (configuration not stated)
The melting point of the first is higher: 109 to 110 °C for the first, 97 °C for the second.

First: Cn1ccnc1CC1COc2ccccc2O1 (configuration not stated)
Second: CC(=O)NC1=NCC(c2ccccc2)CN1 (configuration not stated)
The melting point of the first is lower: 158 to 160 °C for the first, 246 to 249 °C for the second.

Compared with `CNC(=S)C1(c2cc(C)ccn2)CCCS1` (configuration not stated), `CC1=NC(NC(=O)Nc2cc(C)ccn2)C(=O)N(CC(=O)N2CC3CCC(CC3)C2)c2c(C)cccc21` (configuration not stated) is lower in melting point: 181 °C for the first, 152 to 154 °C for the second.

Compared with `O=C1c2ccccc2C(=O)c2cc(Br)c(Br)cc21`, `CC1(C)OC(=O)C(Oc2ccc(F)c(F)c2)=C1c1ccc(S(C)(=O)=O)cc1` is lower in melting point: > 300 °C for the first, 93 to 95 °C for the second.

Compared with `CC(C(=O)O)c1cccc(C2(c3ccccc3)OCCO2)c1` (configuration not stated), `CN(C)CCC1(c2ccccc2)Cc2ccccc2C(=O)O1` (configuration not stated) is higher in melting point: 91 to 94 °C for the first, 95 to 95.5 °C for the second.

First: CCc1nnc(SCC2=C(C(=O)O)N3C(=O)C(NC(=O)Cc4csc(=O)s4)C3SC2)s1 (configuration not stated)
Second: C[C@H]1CN(c2cc3c(cc2F)c(=O)c(C(=O)O)cn3C2CC2)C[C@H]1N (relative stereo)
The melting point of the first is lower: 155 °C for the first, 268 to 270 °C for the second.

First: COc1cc2c(Nc3ccc(Cl)cc3F)ncnc2cc1OCCSc1ccncc1
Second: CN(CCCNc1ncc(Cc2ccccc2Cl)c(=O)[nH]1)c1ccccn1
The melting point of the first is higher: 182 to 186 °C for the first, 47 to 49 °C for the second.

First: COc1nc(Cl)nc(NC#N)n1
Second: Cc1nc(NC(=O)OCC[Si](C)(C)C)cs1
The melting point of the first is higher: > 260 °C for the first, 101 to 103 °C for the second.

First: OC12C=C(C3NCCc4c3[nH]c3ccccc43)C3CCN(CCCCC=CCC1)CC31CC3C=CCCCCN3C21 (configuration not stated)
Second: N#Cc1cccc(Cc2c(-c3ccc(OC(F)F)c(OC4CC4)c3)[nH]c3cn[nH]c(=O)c23)c1
The melting point of the first is higher: 165 to 168 °C for the first, 130 to 135 °C for the second.

Compared with `CC(=O)OC1C=C(C)C(=O)CC(C)(C)C1OC(=O)C=Cc1ccccc1` (configuration not stated), `COCN1C(C)=C(C(=O)OCOC(=O)C(C)(C)C)C(c2ccccc2)C(C(=O)OCOC(=O)C(C)(C)C)=C1C` is higher in melting point: 64 to 65 °C for the first, 89 to 90 °C for the second.

First: COC(=O)[C@H]1C[C@@H](NC(=O)OC(C)(C)C)c2c(Cl)cc(Cl)cc2N1 (relative stereo)
Second: CSC(=NC#N)N[C@@H]1c2cc(S(C)(=O)=O)ccc2OC(C)(C)[C@H]1O (relative stereo)
The melting point of the first is lower: 172 to 173 °C for the first, 219 to 220 °C for the second.

First: CN1CC(c2ccc(Cl)cc2)=NN(c2ccc(Cl)cc2)C1=O
Second: CSC1NC(=O)N(c2ccc(C)cc2)C(=O)N1
The melting point of the first is lower: 174 to 176 °C for the first, 276 to 278 °C for the second.

First: CCOC(=O)c1cc(CC)sc1Nc1ccc(N)cc1N
Second: NC(CC(=O)O)c1ccccc1[N+](=O)[O-] (configuration not stated)
The melting point of the first is lower: 152 to 155 °C for the first, 222 °C for the second.

First: CC(=O)NCC(=O)NCC(=O)N1CC1C#N (configuration not stated)
Second: CC(C)(C)C1CCC2(CC1)CC(O)(CNC1CCCCC1)CO2 (configuration not stated)
The melting point of the first is lower: 70 to 76 °C for the first, 113 to 115 °C for the second.

Compared with `CC(C)[C@H](NC(=O)OCc1ccc2ccccc2n1)C(=O)N[C@@H](Cc1ccccc1)C[C@H](O)[C@H](Cc1ccccc1)NC(=O)OCc1cccnc1`, `CC(C(O)C(C)(C)Cc1ccc(OC(F)(F)F)cc1)n1ncnc1S` (configuration not stated) is lower in melting point: 141 to 143 °C for the first, 125 to 126 °C for the second.

For `COc1ccc(O[C@@H]2CCNC[C@H]2O)cc1` (relative stereo), the melting point was 171 to 173 °C.
